Where “and” joins values, the source holds several entries; their conditions need not be identical. Equal entries are not always repeated. Where two headings read alike, the source gives them in different places.
Tests used:
[1] = tested on: Glioma Chloride Channel (GCC); type: cell-based, human; conditions: for reversibility of current block: after bath application, short exposure times for DIDS and DNDS; for IC50: electrophysiologically determined, read-out: IC50 for inhibition of GCC currents
Excerpt: Current and voltage recordings were obtained using standard whole-cell patch-clamp techniques with an Axopatch-1D amplifier (Axon Instruments). Patch-pipettes were made from thin-walled borosilicate glass (WPI, TW150F-40) o.d. 1.5 mm, i.d. 1.2 mm and were filled with a solution containing (in mM): KCl 145, MgCl2 1, CaCl2 0.2, EGTA 10, Hepes 10, pH adjusted to 7.4 using Tris, unless otherwise noted. Pipettes were not fire-polished and typically had resistances between 2-5MΩ. Cells were continuously superperfused with saline solution, allowing for rapid (<30 seconds) exchange of bath volume. The standard bath solution contained, in mM: NaCl 122.6, KCl 5, MgCl2 1.2, CaCl2 1.0, Na2HPO4 2.0, NaH2PO4 0.4, NaHCO3 25.0, Na2SO4 1.2, Glucose 10.5 (bubbled with 5% CO2/95% O2). Drugs used to block ionic conductances were prepared freshly as stock solutions for each experiment and added to bath solution. Osmolality was measured with a vapor pressure osmometer (Wescor, Logan, Utah) and adjusted to 308-312 mOsms.
For whole-cell recordings, cell capacitance compensation and series resistance compensation were used to minimize voltage errors. The amplifier reading of capacitance was used as the value for the whole-cell membrane capacitance. Series resistances, monitored at regular intervals throughout each experiment, were usually 5-10 MΩ, and series resistance compensation was typically set to ˜80%. Entrance potential, read from the amplifier at the time of entering the whole-cell configuration, was used to determine each cell's resting potential. Voltage-clamp recordings were used to search for voltage-activated currents and stimulation profiles were altered to fully activate chloride channels (pulses from −105 to 195 mV). Where indicated, P/4 leak subtraction was obtained using hyperpolarizing voltage steps to obtain leak currents. Current reversal potential (voltage at which I=0) was determined from IV plots in which tail current amplitudes were plotted as a function of voltage. Effects of channel blockers were assessed by comparing current traces, entrance potential, and reversal potential prior to and following drug application. Snap photographs were taken of each recorded cell using a CCD camera and a video printer for cataloging of cell size, location, and morphology. Recordings were made at room temperature, typically 20-25° C.
Chlorotoxin is a protein having 36 amino acids that is derived from scorpion venom toxin that was originally described as a blocker of small conductance Cl^− channels in epithelial cells (8).
For the following studies, the electrophysiology format was as follows: standard current and voltage recordings were obtained using the whole-cell patch-clamp technique with an Axopatch-1D amplifier (Axon Instruments). Cells were continuously superperfused with bicarbonate-buffered saline at room temperature containing, in mM: NaCl 122.6, KCl 5, MgCl2 1.2, CaCl2 1.0, Na2HPO4 2.0, NaH2PO4 0.4, NaHCO3 25.0, Na2SO4 1.2, Glucose 10.5 (bubbled with 5% CO2). Electrodes (WPI, TW150F-40) o.d. 1.5 mm, i.d. 1.2 mm were filled with (in mM): KCl 145, MgCl2 1, CaCl2 0.2, EGTA 10, Hepes 10, pH adjusted to 7.4 using Tris, unless otherwise noted. Entrance potential, read from the amplifier at the time of entering the whole-cell configuration, was used to determine each cell's resting potential. Voltage-clamp recordings were used to search for voltage-activated currents and stimulation profiles were altered to fully activate chloride channels (pulses from −120 to 120 mV).

astrocytoma cells = experiment: Proliferation assay, 3H-thymidine incorporation; type: cell-based, human; conditions: 24 hour incubation, vs untreated control
Experimental: Proliferation was studied quantitatively by determining incorporation of ^3H-thymidine. In brief, cells were incubated for 24 hours in the continuous presence or absence of Ara-C (cytosine arabinoside, 10 μM), DIDS (200 μM), DNDS (200 μM), zinc (200 μM) or chlorotoxin (600 nM). Cells were incubated with 1 μCi/ml radiolabelled thymidine ([methyl-^3H]thymidine) for the final 4 hours (at 37° C.). Culture dishes were rinsed three times with ice-cold PBS and solublized with 0.3N NaOH for 30 minutes at 37° C. One aliquot ([…]) was used for cell protein determination using the bicinchroninic assay (BCA; Pierce Rockford, Ill.). The remaining cell suspension was mixed with Ultima Gold, and radioactivity was determined with a scintillation counter. The results were expressed as cpm/μg protein.
Given that these Cl^− currents were consistently present in all astrocytoma cells tested from both primary cultures of surgical specimens and from established human astrocytoma cell lines, whether Cl^− currents influence astrocytoma proliferation was examined. Although the effects of Cl^− channel blockade on cell proliferation have been reported in Schwann cells (40) and in B lymphocytes (7), the importance of Cl^− ion channels in glia cells has never been shown. Cells were cultured in the continuous presence of the anti-mitotic agent Ara-C (10 μM), DIDS (200 μM), DNDS (200 μM), Zinc (200 μM), or chlorotoxin (600 nM) and compared the rate of proliferation to untreated (control) sister cultures. Cells were treated at 2 days in culture (DIC) and proliferation was assayed 24 hours later, at 3 DIC, a period of high proliferation of untreated control cultures. As expected, incubation in the anti-mitotic agent Ara-C led to a 70% decrease in proliferation (SD=1.3309, N=17).

normal human glial cells = experiment: 125[I]-chlorotoxin binding to non-tumor cells; conditions: normal human glial cells and mixed brain cell cultures
Experimental: Therefore, binding affinity was determined using (^125[I]-Ctx) radiolabeled with ^125[I]-sodium iodide by the chloramine-T method.

glioma cells = experiment: Immunotoxin (saporin) killing targeted to the Ctx binding site; type: cell-based, human; conditions: pre-treatment of cultures with 6 μM
Experimental: FIG. 19 show the glioma cells were exposed to 600 nM Ctx-GST followed by a mouse aGST and a goat anti-mouse antibody conjugated to saporin.
Using this approach, glioma cells were first treated with Ctx-GST, followed by a mouse anti-GST monoclonal antibody and lastly a goat anti-mouse antibody conjugated to saporin.

[2] = applied to the cytosolic face, 200 μM

[Cd] [cadmium]
block of currents ([1]; 25 mM as printed): 42% | decrease in peak currents ([1]; bath application of 25 μM): 42%±18.5

O=S(=O)(O)c1cc(N=C=S)ccc1C=Cc1ccc(N=C=S)cc1S(=O)(=O)O [DIDS, 4,4′-Diisothiocyanostilbene-2,2′-disulfonic acid]
reversibility of current block [1]: partly reversible | block of currents [1, 2]: 50%±10.9 | decrease in proliferation (3H-thymidine incorporation) (astrocytoma cells; 200 μM): 16.4%

[Zn] [zinc]
decrease in proliferation (3H-thymidine incorporation) (astrocytoma cells; 200 μM): 72.6%

Nc1ccn([C@@H]2O[C@H](CO)[C@@H](O)[C@@H]2O)c(=O)n1 [Ara-C, cytosine arabinoside]
decrease in proliferation (3H-thymidine incorporation) (astrocytoma cells; 10 μM): 70%

chlorotoxin
reversibility of current block [1]: partially reversible | block of Cl− currents ([1]; applied to the cytoplasmic face, 2.5 μM): 60.44% | decrease of outward currents ([1]; bath application of 590 nM, STTG1 cells, voltage steps −105 to +195 mV): 81% | IC50 ([1]; listed as Ctx): ~950 nM | IC50 [1]: 950 nM | increase in proliferation (3H-thymidine incorporation) (astrocytoma cells; 600 nM): 37.8% and 37% | specific binding (normal human glial cells): no specific Ctx binding | prevention of immunotoxin cell death (glioma cells): largely prevented

O=[N+]([O-])c1ccc(C=Cc2ccc([N+](=O)[O-])cc2S(=O)(=O)O)c(S(=O)(=O)O)c1 [DNDS, 4,4′-Dinitrostilbene-2,2′-disulfonic acid]
reversibility of current block [1]: partly reversible | block of currents [1, 2]: 62% | decrease in proliferation (3H-thymidine incorporation) (astrocytoma cells; 200 μM): 38.2%

glutathione-S-transferase [GST]
reduction in Cl− currents [1]: ineffective

From patent publication US6870029B2, “Method of diagnosing and treating gliomas” (priority 1995, dated 2005)
